Numbered stars: 1 amine (or outer) side, 2 acyl side, 3 side chain; on linkers, the order of the positions; unused ones are H or OH. Bridge positions count the residues as written; N and C are the ends. Square brackets hold non-standard residues; d marks the D form. Peptide text beside a SMILES is read from it. dAbu(3S-yl) = C[C@@H]([C@@H](N[*:1])C(=O)[*:2])[*:3]; pGlu = O=C1CC[C@@H](C(=O)O)N1
Experiments:
[1] = mouse, in vivo, 1 mg/kg
Protocol: Pharmacokinetics studies were performed at Pharmidex UK. The animal experimental protocols were approved by the UK Government Home Office and carried out in accordance with the guidelines of the Animals (Scientific Procedures) Act (1986). Ethical approval was subject to UK Home Office license number P651A96A4.
One mg HPLC-purified and HPLC-quantified M89b was dissolved in 1 ml Milli-Q followed by thorough vortexing and warming the solution for 10 min to 60 °C. From this solution, a dilution in 0.1% 2-hydroxypropyl-β-cyclodextrin was made. Male CD1 mice (weighing 26.5 to 32.9 g, n = 3 per time point) were used for the pharmacokinetic studies. Mice were given 1 mg/kg M89b either subcutaneously (s.c.) or intravenously (i.v.). Samples were collected after 2, 5, 10, 15, 30, 60, 120, and 240 min. Post-dosing, the 4 h mice were individually housed in metabolic cages for cold collection of urine in pre-weighed tubes which were re-weighed prior to storage. At each scheduled sampling time point, terminal blood was collected from each animal by cardiac puncture in heparin-containing tubes (20 IU heparin/mL of blood) kept on wet ice. The blood was centrifuged (5 min at 21, 100 g at 4 °C), and the resulting plasma was transferred to the corresponding labeled polypropylene tubes prior to storage. […]

[2] = In vitro stability in brain plasma; type: in vitro ADME, rat; conditions: Sprague-Dawley, rat, other tissue homogenate, pH 7.4
Protocol: The method to study the stability of peptides in brain plasma is described in the Supplementary material. […]
receptor-2-selective agonist reduces acute food intake
Anneke Kuipers1, Márta Balasko2, Erika Pétervári2, Andreas Koller3,4, Susanne M.
Brunner3,4, Gert N. Moll1,5, Barbara Kofler 3*
In vitro stability in brain plasma
Sprague dawley rat brain lyophilized powder was purchased from MyBioSource (San Diego, USA). One gram brain powder was reconstituted in 10 ml PBS, 0.5 ml 2 M Tris (pH=8), 100 µl Triton X -100 and 10 mg SDS. The solution was centrifuged and the supernatant was collected, aliquoted and stored at -20 °C until usage. To assess the stability, 10 µM GAL-(1-15) and 10 µM M89b were incubated in 1% brain plasma buffered with 200 mM phosphate buffer (pH 7.4) at 37°C for up to 6 hours. At various time points […]
20 µl 100% ACN. Samples were centrifuged and kept on ice. Full-length peptides were quantified by using a C12 column (C12 RP 250 x 4.60 mm column, Phenomenex) on a JASCO HPLC system and applying a gradient of 20 -90% ACN in 0.1% TFA for 30 minutes.
Peptides were detected at 280 nm. A280 areas in chromatograms of the corresponding GAL-(1-15) and M89b full-length peptide peaks were used to determine the amount of peptide left after incubation with cerebrospinal fluid at the different time points. Peptide peaks were determined using JASCO-Borwin Chromatography software (v1.50).

[3] = In vitro stability in rat serum; type: in vitro ADME; conditions: rat, serum, pH 7.4
Protocol: At various time points (0, 30, 90, 270, and 1410 min), 180 µl of samples were quenched with 10 µl 10% TFA and 20 µl 100% ACN. Samples were centrifuged and kept on ice. The amount of full-length peptides in the serum was analyzed using a C12 column (C12 RP 250 × 4.60 mm column, Phenomenex) on a JASCO HPLC system and applying a gradient of 10–90% ACN in 0.1% TFA for 45 min. Peptides were detected at 280 nm. A280 areas in chromatograms of the corresponding GAL-(1–15) and M89b full-length peptide peaks were used to determine the amount of peptide left after incubation with 5% rat serum at the different time points. Peptide peaks were determined using JASCO-Borwin Chromatography software (v1.50).

[4] = molecular target: T1, GAL1R (Homo sapiens, UniProt P47211); assay: cAMP Hunter eXpress GAL1R CHO-K1 GPCR assay (inhibition of forskolin-induced cAMP); type: cell-based; parameters: expressed in transfected cells; conditions: Table 3; CHO-K1 cells expressing GAL1R; 20 µM forskolin; 10 µM to 5 nM; (average) ratio, (n) in cell = number of assays; NA = ratio above 1000
T1 sequence (P47211 1-349): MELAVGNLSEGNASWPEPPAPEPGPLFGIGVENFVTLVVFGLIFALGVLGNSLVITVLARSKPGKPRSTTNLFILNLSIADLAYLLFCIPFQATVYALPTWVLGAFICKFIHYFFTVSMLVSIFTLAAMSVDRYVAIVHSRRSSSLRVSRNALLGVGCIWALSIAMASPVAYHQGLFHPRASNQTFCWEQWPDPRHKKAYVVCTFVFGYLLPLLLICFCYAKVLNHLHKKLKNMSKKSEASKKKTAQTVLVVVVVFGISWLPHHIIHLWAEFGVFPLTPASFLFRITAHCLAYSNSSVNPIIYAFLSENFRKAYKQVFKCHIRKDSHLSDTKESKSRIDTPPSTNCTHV
Protocol: To evaluate the ability of lanthipeptides to […] via GAL1R signaling, we used the cAMP Hunter™ eXpress GAL1R CHO-K1 GPCR Assay from Eurofins-DiscoverX. The assay was performed according to the manufacturer’s instructions. Briefly, for one assay, CHO-K1 cells expressing GAL1R were diluted in AssayComplete™ Cell Plating 2 Reagent, and 100 µl was seeded into each well of a 96-well plate. The plate was incubated at 37 °C, 5% CO2 in a humidified incubator. After 24 h of incubation, the media was aspirated, and 45 µl cell assay buffer/antibody mixture was added to all wells. […] Fifteen µl of the serial dilutions was applied in duplicates to the cells. The concentration of forskolin in the assay was 20 µM. The agonists were incubated for 30 min at 37 °C. Next, 15 µL Antibody Solution and 60 μL cAMP Working Detection Solution were added, and the plate was incubated for 1 h in the dark at room temperature. Finally, 60 μL cAMP Solution A was added and, after 3 h of incubation in the dark at room temperature, the chemiluminescent signal was read with a Synergy HT Biotek reader.

Q: With `CC(C)C[C@H](NC(=O)[C@H](CC(C)C)NC(=O)[C@H](Cc1ccc(O)cc1)NC(=O)CNC(=O)[C@H](C)NC(=O)[C@H](C)NC(=O)[C@H](CC(N)=O)NC(=O)[C@H](CC(C)C)NC(=O)[C@H](CC(N)=O)NC(=O)[C@H](Cc1c[nH]c2ccccc12)NC(=O)[C@@H]1CCC(=O)N1)C(=O)N[C@@H](C)C(=O)N[C@H]1C(=O)N[C@@H](Cc2c[nH]cn2)C(=O)N[C@@H](C)C(=O)N[C@H](C(=O)NCC(=O)O)CS[C@H]1C` [Variant M89b, G1pE-T3N-S6A-G12A-methyllanthionine[13–16]-galanin-(1–17)] ([pGlu]WNLNAAGYLLA[dAbu(3S-yl)]HACG-OH; thioether 13-16; C-terminus assumed) as the compound, how does the “Detection in urine samples” value [1] read?
A: not detected

Q: And the “Detection in brain tissue” value ([1]; sc)?
A: not detected

Q: And the remaining at 6 h, 10 µM [2]?
A: ~85%

Q: And the half-life at 10 µM [3]?
A: > 24 h

Q: What about the metabolised at 23.5 h, 10 µM [3] of the same compound?
A: 40%

Q: What about the remaining at 23.5 h, 10 µM [3] of the same compound?
A: ~60%

Q: And the “EC50 ratios to Gal-(1-15), GAL1R cAMP” value [4]?
A: NA (3) (NA is not active; ratios above 1000 were considered to be not active)

Source: article PMC8804135 (Neurotherapeutics, 2021)
